Assay results taken from patent US20230024108A1, “ADENOSINE A2A RECEPTOR ANTAGONISTS” (Teon Therapeutics, Inc., priority 2019, published 2023).

How the values were obtained:
[1] = target: T1, human A2B AdoR (Homo sapiens, UniProt P29275); assay: Adenosine receptor binding assay, A2B ([3H]-DPCPX); conditions: ratio A2B vs A2A binding
T1 construct: purchased PerkinElmer ES-013-M400UA
T1 sequence (P29275 1-332): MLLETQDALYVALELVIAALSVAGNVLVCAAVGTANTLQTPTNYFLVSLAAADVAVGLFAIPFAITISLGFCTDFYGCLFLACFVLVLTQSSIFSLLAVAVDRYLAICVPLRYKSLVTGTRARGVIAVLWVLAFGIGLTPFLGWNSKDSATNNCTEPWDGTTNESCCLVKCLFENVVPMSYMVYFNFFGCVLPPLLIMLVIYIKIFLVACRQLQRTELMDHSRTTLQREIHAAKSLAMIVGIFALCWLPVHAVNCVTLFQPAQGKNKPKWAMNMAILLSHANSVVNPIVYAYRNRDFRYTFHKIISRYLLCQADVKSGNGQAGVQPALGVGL
Experimental: Membranes prepared from CHO-K1 cells stably expressing Human AiAdoR (ES-010-M400UA), HEK-293 cells stably expressing human A2A AdoR (RBHA2AM400UA), HEK-293 cells stably expressing human A2B AdoR (ES-013-M400UA) and CHO-K1 cells stably expressing Human A3 AdoR (ES-012-M400UA) were purchased from PerkinElmer (Waltham, Mass., USA) and stored at −80° C. until use. Binding assays are performed using the radioligands. The final concentrations are as follows: [3H]-DPCPX (PerkinElmer, NET974001MC) at 1 nM for A1AdoR; [^3H]-CGS-21680 (PerkinElmer, NET1021250UC) at 6 nM for A2AAdoR, [3H]-DPCPX (PerkinElmer, NET974001MC) at 8 nM for A2BAdoR; [^3H]-HEMADO (ARC, Cat: ART1456) at 1 nM for A3AdoR. Testing compounds are diluted with DMSO to make 8-point 4-fold serial dilution. Nonspecific binding (Low control: LC) and total binding (High control: HC) are determined in the presence or absence of saturated cold ligand. Specific binding is calculated by subtracting nonspecific binding from total binding. All assays are performed in a final volume of 200 μl containing 1 μl of the test compound in DMSO, 100 μl of membrane preparation, and 99 μl of the radioligand in assay buffer (A1AdoR: 25 mM HEPES pH 7.4, 5 mM MgCl2, 1 mM CaCl2), 100 mM NaCl; A2AAdoR: 50 mM Tris HCl pH 7.4, 10 mM MgCl2, 1 mM EDTA; A2BAdoR: 50 mM HEPES pH 7.0, 5 mM MgCl2, 1 mM EDTA; A3AdoR: 25 HEPES pH 7.4, 10 mM MgCl2, 1 mM CaCl2), 0.5% BSA). The incubation is performed at room temperature with shaking at 300 rpm for 1 hour for A1AdoR, A2BAdoR and A3AdoR and 2 hours for A2AAdoR. After the incubation, the assay mixture is filtered through 96 GF/C filter plates (Perkin Elmer #6005174) using Perkin Elmer Filtermate Harvester, and then washed four times with ice-cold washing buffer (A1AdoR: 25 mM HEPES pH 7.4, 5 mM MgCl2, 1 mM CaCl2), 100 mM NaCl; A2AAdoR: 50 mM Tris HCl pH 7.4, 154 mM NaCl; A2BAdoR: 50 mM HEPES pH 6.5, 5 mM MgCl2, 1 mM EDTA, 0.2% BSA; A3AdoR: 50 mM Tris HCl pH 7.4). The filters are dried for 1 hour at 50° C. and [^3H] trapped on filter counted for radioactivity in Perkin Elmer Microscint 20 cocktail (#6013329) using Perkin Elmer MicroBeta2 Reader. The results are expressed as a percent inhibition of the control radioligand specific binding calculated using the following equation: % Inhibition=(1−(Assay well-Average_LC)/(Average_HC−Average_LC))×100%. Data are analyzed and IC50 is calculated using GraphPad Prism 5 and the model “log(inhibitor) vs. response—Variable slope”. The binding affinity of the compounds is determined by using the Cheng and Prusoff equation Ki=IC50/(1+[radioligand]/Kd).

[2] = target: T2, human A2A AdoR (Homo sapiens, UniProt P29274); assay: Adenosine receptor binding assay, A2A ([3H]-CGS-21680); conditions: membranes of HEK-293 cells expressing human A2A AdoR; read-out: hA2A IC50
T2 construct: purchased PerkinElmer RBHA2AM400UA
T2 sequence (P29274 whole entry): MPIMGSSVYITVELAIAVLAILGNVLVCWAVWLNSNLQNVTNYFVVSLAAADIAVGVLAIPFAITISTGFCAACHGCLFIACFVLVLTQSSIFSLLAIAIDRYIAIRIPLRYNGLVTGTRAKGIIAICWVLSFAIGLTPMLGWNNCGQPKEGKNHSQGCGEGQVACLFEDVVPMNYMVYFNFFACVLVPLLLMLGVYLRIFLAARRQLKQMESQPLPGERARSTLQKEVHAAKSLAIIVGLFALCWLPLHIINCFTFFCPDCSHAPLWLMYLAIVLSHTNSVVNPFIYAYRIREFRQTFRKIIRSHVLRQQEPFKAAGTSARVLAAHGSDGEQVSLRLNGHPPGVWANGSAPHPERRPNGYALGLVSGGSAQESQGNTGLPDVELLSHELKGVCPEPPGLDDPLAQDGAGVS
Method in brief: (§1)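 Filtration binding on membranes: A2A in HEK-293 with 6 nM [3H]-CGS-21680, Tris pH 7.4, 2 h; A2B in HEK-293 with 8 nM [3H]-DPCPX, HEPES pH 7.0, 1 h; A1 in CHO-K1 with 1 nM [3H]-DPCPX, HEPES pH 7.4, 1 h; room temperature. 8-point dilutions; IC50 converted to Ki (Cheng–Prusoff).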

[3] = test system: phospho-CREB (pCREB); assay: Human whole blood phospho-CREB (pCREB) assay / modulation of pCREB in human immune cells; assay type: cell-based; conditions: agonist (NECA or CGS-21680)-stimulated human blood cells
Experimental: Fresh human blood samples are derived from healthy volunteers and processed in heparin tubes. 67.5 ul of whole blood is aliquoted to each well in a 96-well plate and incubated at 37° C. for 30 min. Testing compounds are diluted with DMSO to make 8-point 3-fold serial dilution and 3.5 ul (20×) is added to each well. Cells are incubated with the compounds at 37° C. for 30 min. NECA (5 uM) is then added to each well and cells are incubated for 30 min at 37° C. Following the stimulation, cells are transferred to a 96-well deep well plates and fixed with 1 ml/well of lyse/fix buffer (1×) (BD Biosciences #558049) with vigorous shake at 37° C. for 10 min. Cells are centrifuged at 600 g for 6 min and washed twice with PBS, followed by addition of 800 ul/well Perm buffer III (BD Biosciences #558050). Cells are then pelleted at 600 g for 6 min, washed with FACS buffer (PBS+0.2% BSA+1 mM EDTA) and stained for 40 min at room temperature in the dark with an antibody cocktail containing PE mouse anti-human CD3 (BD Biosciences #555333, 1 ul/well), FITC mouse anti-human CD4 (BD Biosciences #5555346, 1 ul/well), PerCP-Cy™5.5 mouse anti-human CD8 (BD Biosciences #565310, 1 ul/well) and phospho-CREB (Ser133) (87G3) Rabbit mAb (Alexa Fluor® 647 Conjugate, CST #14001, 0.5 ul/well). Cells are then washed twice with FACS buffer and acquired on a flow cytometer (Sony Cell Sorter SH800). Data were analyzed using FlowJo version 9. The level of CREB phosphorylation from unstimulated cells (Low control: LC) and NECA-stimulated cells (High control: HC) are determined as mean fluorescent intensity (MFI) in stimulated condition/mean fluorescent intensity in unstimulated condition. % Inhibition is calculated as (MFI of HC-MFI of assay well)/(MFI of HC-MFI of LC)×100%. Data are analyzed and IC50s calculated using GraphPad Prism 5 and the model “log(inhibitor) vs. response—Variable slope”.
The A2A receptor is known to mediate CREB phosphorylation.
Venous blood from healthy volunteers, all of whom signed an informed consent approved by the Ethics Committee (FOR—UIC-BV-050-01-01 ICF HBS HD Version 5.0), was obtained via ImmuneHealth (Centre Hospitalier Universitaire Tivoli, La Louviere,
15 Belgium). Peripheral blood cells were treated with A2AR agonists CGS-21680 or NECA (Sigma-Aldrich, Diegem, Belgium), and a serial dilution of compounds disclosed herein (all used stock solutions at 10 mM in DMSO). All dilutions were prepared in RPMI1640 medium (with UltraGlutamine; Lonza, Venders, Belgium), and cells were incubated with compounds in a 37° C. humidified tissue culture incubator with 5% CO2.
After stimulation, cells were fixed and permeabilized, followed by intracellular staining using mouse anti-human pCREB antibodies (Clone J151-21; BD Biosciences) at room temperature. Data were acquired using an LSRFortessa flow cytometer (BD Biosciences) and analyzed using FlowJo software (FlowJo, LLC, Ashland, Oregon).

[4] = target: T3, A1AdoR (Homo sapiens, UniProt P30542); assay: Adenosine receptor binding assay, A1 ([3H]-DPCPX); conditions: ratio A1 vs A2A binding
T3 construct: purchased PerkinElmer ES-010-M400UA
T3 sequence (P30542 1-326): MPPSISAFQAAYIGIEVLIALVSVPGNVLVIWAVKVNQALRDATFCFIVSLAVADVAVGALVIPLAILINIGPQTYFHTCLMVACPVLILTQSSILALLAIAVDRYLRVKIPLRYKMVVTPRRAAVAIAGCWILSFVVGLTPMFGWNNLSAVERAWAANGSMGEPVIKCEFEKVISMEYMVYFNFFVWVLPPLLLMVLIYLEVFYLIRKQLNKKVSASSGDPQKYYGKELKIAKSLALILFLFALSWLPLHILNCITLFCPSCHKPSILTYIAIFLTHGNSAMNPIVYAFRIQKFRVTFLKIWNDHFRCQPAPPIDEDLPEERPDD
Method in brief: as §1

Structure (SMILES) | A2B/A2A Selectivity [1] | IC50 [2] | EC50 [3] | A1/A2A Selectivity [4]
CC#Cc1nc2c3cc(C#N)n(CCN4CCN(c5ccc(OCCOC)cc5)CC4)c3nc(N)n2n1 | a (greater than 1000) | ≤ 20 nM | > 100 nM | a (greater than 1000)
Cc1noc2cc(F)c(N3CCN(CCn4cnc5c4nc(N)n4nc(-c6ccccn6)nc54)CC3)cc12 [3-(2-(4-(6-fluoro-3-methylbenzo[d]isoxazol-5-yl)piperazin-1-yl)ethyl)-8-(pyridin-2-yl)-3H-[1,2,4]triazolo[5,1-i]purin-5-amine] |  | ≤ 20 nM | > 100 nM | b (greater than 100 but less than or equal to 1000)
CS(=O)(=O)NC(=O)COc1ccc(N2CCN(CCn3c(C#N)c(Cl)c4c3nc(N)n3nc(-c5ccccn5)nc43)CC2)cc1 |  | ≤ 20 nM | 20 to 100 nM | b (greater than 100 but less than or equal to 1000)
N#Cc1c(Cl)c2c(nc(N)n3nc(-c4ccccn4)nc23)n1CCN1CCN(c2cc(-c3ncco3)ccc2F)CC1 |  | ≤ 20 nM | 20 to 100 nM | 
COC(=O)c1c(C)c2c(nc(N)n3nc(-c4ccccn4)nc23)n1CCN1CCN(c2cc(-c3ncco3)ccc2F)CC1 |  | ≤ 20 nM | > 100 nM | a (greater than 1000)
CC#Cc1nc2c3ncn(CCN4CCN(c5cc(-c6ncco6)ccc5F)CC4)c3nc(N)n2n1 |  | ≤ 20 nM | 20 to 100 nM | a (greater than 1000)
Cc1c(C(N)=O)n(CCN2CCN(c3cc(-c4ncco4)ccc3F)CC2)c2nc(N)n3nc(-c4ccccn4)nc3c12 |  | ≤ 20 nM | ≤ 20 nM | a (greater than 1000)
Cc1cn(CCN2CCN(c3cc(-c4ncco4)ccc3F)CC2)c2nc(N)n3nc(-c4ccccn4)nc3c12 |  | ≤ 20 nM | 20 to 100 nM | c (greater than 0 but less than or equal to 100)
CNC(=O)c1cc2c(nc(N)n3nc(-c4ccccn4)nc23)n1CCN1CCN(c2cc(-c3ncco3)ccc2F)CC1 [5-amino-7-(2-(4-(2-fluoro-5-(oxazol-2-yl)phenyl)piperazin-1-yl)ethyl)-N-methyl-2-(pyridin-2-yl)-7H-pyrrolo[3,2-e][1,2,4]triazolo[1,5-c]pyrimidine-8-carboxamide] |  | ≤ 20 nM | > 100 nM | c (greater than 0 but less than or equal to 100)
Cc1c(C(=O)N2CCC2)n(CCN2CCN(c3cc(-c4ncco4)ccc3F)CC2)c2nc(N)n3nc(-c4ccccn4)nc3c12 |  | ≤ 20 nM | 20 to 100 nM | b (greater than 100 but less than or equal to 1000)
CNC(=O)c1c(C)c2c(nc(N)n3nc(-c4ccccn4)nc23)n1CCN1CCN(c2cc(-c3ncco3)ccc2F)CC1 |  | ≤ 20 nM | ≤ 20 nM | a (greater than 1000)
Cc1cc(N2CCN(CCn3c(C(N)=O)c(C)c4c3nc(N)n3nc(-c5ccccn5)nc43)CC2)c(F)cn1 [5-amino-7-(2-(4-(5-fluoro-2-methylpyridin-4-yl)piperazin-1-yl)ethyl)-9-methyl-2-(pyridin-2-yl)-7H-pyrrolo[3,2-e][1,2,4]triazolo[1,5-c]pyrimidine-8-carboxamide] |  | ≤ 20 nM |  | c (greater than 0 but less than or equal to 100)
Cc1c(C(N)=O)n(CCN2CCN(c3ccc(F)cc3F)CC2)c2nc(N)n3nc(-c4ccccn4)nc3c12 [5-amino-7-(2-(4-(2,4-difluorophenyl)piperazin-1-yl)ethyl)-9-methyl-2-(pyridin-2-yl)-7H-pyrrolo[3,2-e][1,2,4]triazolo[1,5-c]pyrimidine-8-carboxamide] |  | ≤ 20 nM |  | b (greater than 100 but less than or equal to 1000)
CS(=O)(=O)NC(=O)COc1ccc(N2CCN(CCn3c(C#N)cc4c3nc(N)n3nc(-c5ccccn5)nc43)CC2)cc1 [2-(4-(4-(2-(5-amino-8-cyano-2-(pyridin-2-yl)-7H-pyrrolo[3,2-e][1,2,4]triazolo[1,5-c]pyrimidin-7-yl)ethyl)piperazin-1-yl)phenoxy)-N-(methylsulfonyl)acetamide] |  | ≤ 20 nM | > 100 nM | b (greater than 100 but less than or equal to 1000)
